Results: the NIST ThermoML archive (doi:10.1016/j.tca.2005.08.012)

Experiments:
[1] = xn = mol fraction of the nth substance listed; details: 101 kPa, Liquid, Vibrating tube method
[2] = 101.33 kPa, Liquid, Vibrating tube method

CCCN [propan-1-amine] + c1ccccc1
mass density [kg/m3], [1]
Details	x1 = 0.0079	x1 = 0.0186	x1 = 0.028	x1 = 0.0366	x1 = 0.047	x1 = 0.0579	x1 = 0.0659	x1 = 0.0759	x1 = 0.0844
303.15 K	867.07	865.41	863.91	862.58	860.86	859.18	857.86	856.37	854.97
313.15 K	856.39	854.75	853.34	852.02	850.44	848.78	847.56	846.03	844.73

CCCCNCCCC [dibutylamine]
[2]
Details	mass density [kg/m3]
303.15 K	752.28
313.15 K	743.44

CCCN(CCC)CCC [tripropylamine]
[2]
Details	mass density [kg/m3]
303.15 K	749.15
313.15 K	740.41

CCCCN(CCCC)CCCC [tributylamine] + c1ccccc1
mass density [kg/m3], [1]
Details	x1 = 0.0102	x1 = 0.0206	x1 = 0.0302	x1 = 0.0404	x1 = 0.0499	x1 = 0.0596	x1 = 0.0698	x1 = 0.0796	x1 = 0.0874
303.15 K	865.38	862.54	860.05	857.48	855.12	852.77	850.4	848.22	846.53
313.15 K	854.76	852.03	849.61	847.12	844.87	842.65	840.38	838.28	836.65

C1CCCCC1 [cyclohexane]
[2]
Details	mass density [kg/m3]
303.15 K	769.1
313.15 K	759.52

CCN(CC)CC [triethylamine]
[2]
Details	mass density [kg/m3]
303.15 K	718.44
313.15 K	709.05

CCCNCCC [dipropylamine]
[2]
Details	mass density [kg/m3]
303.15 K	731.21
313.15 K	726.15

CCCCN(CCCC)CCCC [tributylamine]
[2]
Details	mass density [kg/m3]
303.15 K	770.21
313.15 K	763.11

CCCN [propan-1-amine]
[2]
Details	mass density [kg/m3]
303.15 K	706.1
313.15 K	696.04

CCCCNCCCC [dibutylamine] + c1ccccc1
mass density [kg/m3], [1]
Details	x1 = 0.0108	x1 = 0.0201	x1 = 0.03	x1 = 0.039	x1 = 0.0487	x1 = 0.0593	x1 = 0.0689	x1 = 0.0797	x1 = 0.0892
303.15 K	865.75	863.58	861.33	859.32	857.18	854.88	852.86	850.62	848.69
313.15 K	855.17	853.13	851	849.09	847.05	844.85	842.92	840.79	838.92

CCCCN [1-butanamine] + c1ccccc1
mass density [kg/m3], [1]
Details	x1 = 0.0094	x1 = 0.0195	x1 = 0.0284	x1 = 0.038	x1 = 0.048	x1 = 0.0588	x1 = 0.0669	x1 = 0.0764	x1 = 0.0859
303.15 K	866.8	865.19	863.77	862.3	860.74	859.06	857.8	856.32	854.84
313.15 K	856.12	854.55	853.17	851.7	850.16	848.5	847.27	845.82	844.4

c1ccccc1 [benzene]
[2]
Details	mass density [kg/m3]
303.15 K	868.3
313.15 K	857.59

CCCCN [1-butanamine] + C1CCCCC1
mass density [kg/m3], [1]
Details	x1 = 0.0097	x1 = 0.0197	x1 = 0.0282	x1 = 0.038	x1 = 0.0471	x1 = 0.0581	x1 = 0.0674	x1 = 0.0724	x1 = 0.0873
303.15 K	768.39	767.7	767.1	766.38	765.76	764.98	764.35	764.08	763.14
313.15 K	758.82	758.12	757.54	756.91	756.3	755.61	754.91	754.62	753.62

CCCN(CCC)CCC [tripropylamine] + c1ccccc1
mass density [kg/m3], [1]
Details	x1 = 0.0104	x1 = 0.0206	x1 = 0.0307	x1 = 0.0402	x1 = 0.0497	x1 = 0.0596	x1 = 0.0693	x1 = 0.0788	x1 = 0.0889
303.15 K	865.5	862.82	860.21	857.87	855.54	853.15	850.88	848.69	846.42
313.15 K	854.85	852.24	849.71	847.43	845.18	842.85	840.66	838.55	836.35

CCCN(CCC)CCC [tripropylamine] + C1CCCCC1
mass density [kg/m3], [1]
Details	x1 = 0.0109	x1 = 0.02	x1 = 0.0305	x1 = 0.0406	x1 = 0.0511	x1 = 0.0596	x1 = 0.0693	x1 = 0.0787	x1 = 0.0878
303.15 K	768.54	768.11	767.6	767.14	766.65	766.35	765.93	765.54	765.16
313.15 K	758.99	758.57	758.14	757.71	757.28	756.93	756.56	756.18	755.84
